From ChEMBL document CHEMBL1132030, “Photoactivatable peptides based on BMS-197525: a potent antagonist of the human thrombin receptor (PAR-1)” (Bioorg Med Chem Lett, 1999)
Where a SMILES comes first, the peptide text is derived from it. [ ]: non-standard residue; d: D form. The star is where a group is joined. Phe(4-guanidino) = N=C(N)Nc1ccc(C[C@H](N)C(=O)O)cc1; Bpa = N[C@@H](Cc1ccc(C(=O)c2ccccc2)cc1)C(=O)O; Phe(4-F) = N[C@@H](Cc1ccc(F)cc1)C(=O)O; NBD = O=[N+]([O-])c1ccc(*)c2nonc12; Orn = NCCC[C@H](N)C(=O)O; X2 = O=C(/C=C/c1ccccc1)*

Target: T1, Proteinase-activated receptor 1 (Homo sapiens, UniProt P25116)
T1 sequence (P25116 whole entry): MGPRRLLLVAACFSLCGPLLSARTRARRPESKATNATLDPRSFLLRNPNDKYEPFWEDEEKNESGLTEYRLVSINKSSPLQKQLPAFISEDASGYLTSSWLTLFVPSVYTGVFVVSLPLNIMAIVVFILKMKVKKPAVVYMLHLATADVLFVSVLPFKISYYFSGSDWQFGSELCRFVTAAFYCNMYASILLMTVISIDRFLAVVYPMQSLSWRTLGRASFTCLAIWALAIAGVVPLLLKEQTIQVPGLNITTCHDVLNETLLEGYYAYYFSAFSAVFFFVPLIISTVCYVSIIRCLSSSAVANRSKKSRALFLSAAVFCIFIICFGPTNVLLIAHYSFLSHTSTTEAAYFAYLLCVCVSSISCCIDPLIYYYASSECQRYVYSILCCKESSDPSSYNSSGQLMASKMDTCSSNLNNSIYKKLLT
Assay: Human Thrombin receptor 1 (PAR-1) antagonistic ability to inhibit SFLLRN-NH2 (2.7 uM)-induced platelet aggregation; Not active at 110 uM concentration; call rule not given here
Format: functional

IC50: Not Active
Compound: CC(C)C[C@H](NC(=O)[C@H](Cc1ccc(NC(=N)N)cc1)NC(=O)[C@H](Cc1ccc(F)cc1)NC(=O)/C=C/c1ccccc1)C(=O)N[C@@H](Cc1ccc(C(=O)c2ccccc2)cc1)C(=O)N[C@@H](CCCNc1ccc([N+](=O)[O-])c2nonc12)C(=O)O (X2-[Phe(4-F)][Phe(4-guanidino)]L[Bpa][Orn](NBD)-OH)
